One may read the melting point as the temperature, or range, at which the solid turns liquid. The term IC50 denotes the concentration needed to halve the response being measured.

Results on seven molecules are retold here after US6384080B1, “Anthranilic acid derivatives as inhibitors of the cGMP-phosphodiesterase” (Fujisawa Pharmaceutical Co., Ltd., priority 1998, dated 2002).

Data set [1] deals with rabbit corpora cavernosa. Description: Relaxation elicited by electrical field stimulation in rabbit corpora cavernosa. To be noted: at 5×10^−8 M. The protocol: (b) Effect of test compounds on the relaxation elicited by electrical field stimulation in rabbit corpora cavernosa.
The rabbit erectile tissue strip prepared according to the method described by Italiano et al. (Pharmacological Research, 30, No 4, 1994) was placed 25 ml organ bath containing Krebs-Ringer solution. The bath was maintained at 37° C. and bubbled with 95% O2 and 5% CO2. The solution also contained atropine (1 μM) and guanethidine (50 μM). The erectile tissue strip was stretched with a resting force of 0.25 g, and isometric contraction were recorded via force development transducer on a recorder. The bipolar platinum electrode connected to the electric stimulator was placed around the strip.
The strip was equilibrated in the Krebs-Ringer solution for about 60 minutes and preconstricted by 0.1 mM norepinephrine to ascertain the responsibility of each preparation. The strip was washed several times, and then constricted by 0.1 mM norepinephrine. After getting stable contractile response to norepinephrine, the first electrical field stimulation (1 to 30 Hz, 20V, 0.5 msec duration, 90 sec interval) was delivered. 30 minutes after adding the tested compound, the second electrical field stimulation was delivered. […]

The test system of data set [2] is SD rat. Type of data set: in vivo. Particulars: 32 mg/kg once a day for 14 consecutive days. The protocol: Toxicities of Compound (I)
Test on the toxicity by repetitive oral administration of the compounds, i.e., N-(3,4-dimethoxybenzyl)-2-(cis-4-hydroxycyclohexylamino)-5-nitrobenzamide and (R)-N-(3,4-dimethoxybenzyl)-2-(2-hydroxy-1-methylethylamino)-5-nitrobenzamide which were selected as representative compounds of this invention, in SD rat was conducted.

The subject of data set [3] is Male beagle. In words: Duration of detumescence (T75) after cavernous nerve electrical stimulation in anesthetized beagle. Type of data set: in vivo. Particulars: 0.1 mg/kg, i.v., cavernous nerve stimulation 7 Hz, 10 V, T75 = time from cessation of stimulation to 75% reduction of intracavernous pressure. The procedure:
(c) Male beagle weighing 8.0-12.0 kg were anesthetized with pentobarbital sodium (35 mg/kg, i.v.). After tracheotomy, the animal was artificially ventilated using a volume-cycled ventilator. The femoral artery was cannulated for continuous blood pressure and heart rate monitoring. The femoral vein was cannulated for maintenance of anesthesia and administration of tested compound.
Either the left or right cavernous nerve was exposed posterolaterally to the prostate and a cuff electrode was placed around the nerve for electrical stimulation. A 21-gauge butterfly needle was placed in the corpus cavernousum and connected to a pressure transducer for intracavernous pressure. After a period of stabilization of all parameters, erection was induced by cavernous nerve electrically stimulation (7 Hz, 10 V) and the following was measured: the duration of detumescence (time (T75) from cessation of stimulation to 75% reduction of intracavernous pressure). The test compounds, i.e., N-(3,4-dimethoxybenzyl)-2-(cis-4-hydroxycyclohexylamino)-5-nitrobenzamide and (R)-N-(3,4-dimethoxybenzyl)-2-(2-hydroxy-1-methyl-ethylamino)-5-nitrobenzamide were each dissolved in 50% PEG400.

Data set [4] concerns the target T1, human platelet PDE-V (Homo sapiens, UniProt O76074).
T1 construct: Human platelet cGMP-PDE was separated from other isozymes in human platelets; from tissue; host or cells: human platelets
Description: cGMP-Phosphodiesterase (PDE) assay, enzymatic inhibitory test. Type of data set: biochemical. Particulars: human platelet PDE-V; 0.1 μM [3H]-cGMP substrate, 30° C., 10 minutes; read-out: Inhibitory activity IC50. Summed up:
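Enzyme isolated from human platelets; compounds at final 10^−10 to 10^−6 M in Tris-HCl pH 8.0 with DTT, snake venom, 1 mM EGTA. Substrate 0.1 μM [^3H]-cGMP, 30 °C for 10 min at 10-20% hydrolysis; resin-separated ^3H product counted by scintillation.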

In data set [5] the test system is isolated rat corpora cavernosa. In words: Nitroprusside-induced relaxation in isolated rat corpora cavernosa. Particulars: in the presence of the test compound (5×10^−8 M); strip constricted by 0.1 mM norepinephrine; control preparation 20%. The arrangement: species or system SD rat. The protocol:
(a) Effect of Test Compound on Nitroprusside or Ach-induced Relaxation in Isolated Rat Corpora Cavernosa.
Male SD rats were anesthetized with sodium pentobarbital 50 mg/kg intraperitoneally, and the corpora cavernosa was excised. The tunica albuginea was dissected according to the methods described by Italiano et al. (Pharmacological Research, 30, No. 4, 1994) and used for in vitro pharmacological study. The erectile tissue strip was placed in a 25 ml organ bath containing Krebs-Ringer solution. The bath was maintained at 37° C. and bubbled with 95% O2 and 5% CO2. The strip was stretched with a resting force of 0.25 g, and isometric contraction were recorded via force development transducer on a recorder.
The strip was equilibrated in the Krebs-Ringer solution for about 60 minutes, and preconstructed by 0.1 mM norepinephrine to ascertain the responsibility of each preparation. The strip was washed several times, and then constricted by 0.1 mM norepinephrine. After getting stable constrictile response to norepinephrine, the first dose-response curve for sodium nitroprusside or Ach(acetylcholine) was obtained. After washing a few times for 60 minutes, the strip was constricted by norepinephrine again, and the second dose-response curve for sodium nitroprusside or Ach was obtained. […]

Take `COc1ccc(CNC(=O)c2cc([N+](=O)[O-])ccc2N[C@H]2CC[C@@H](O)CC2)cc1OC` [N-(3,4-Dimethoxybenzyl)-2-(cis-4-hydroxycyclohexylamino)-5-nitrobenzamide]: in data set [1], the “relaxation of corpora cavernosa elicited by electrical field stimulation (effect in words)” value is reported as “potentiated”. Also, the “The dead (toxicity by repetitive oral administration)” value in data set [2] was “could not be observed”. Moreover, the “mean of prolongation of T75” value in data set [3] was found to be 52 s.
Turning to `O=C(NCc1ccc(-c2ccccc2)cc1)c1cc([N+](=O)[O-])ccc1N[C@H]1CC[C@@H](O)CC1` [2-(cis-4-Hydroxycyclohexylamino)-5-nitro-N-(4-phenylbenzyl)benzamide], the melting point was 168 to 170 °C. Besides, the concentration for half-maximal inhibition (IC50) in data set [4] was < 0.01 µM.
As to `Cc1ccc(CNC(=O)c2cc([N+](=O)[O-])ccc2N[C@@H](C)CO)cc1Cl` [(S)-N-(3-Chloro-4-methylbenzyl)-2-(2-hydroxy-1-methylethylamino)-5-nitrobenzamide], the melting point lay in the range of 178 to 179 °C. In addition, the half-inhibitory concentration (IC50) in data set [4] is < 0.01 µM.
Consider `COc1ccc(CNC(=O)c2cc([N+](=O)[O-])ccc2N[C@H](C)CO)cc1OC` [(R)-N-(3,4-Dimethoxybenzyl)-2-(2-hydroxy-(1-methylethylamino)-5-nitrobenzamide], for which the “relaxation of corpora cavernosa elicited by electrical field stimulation (effect in words)” value in data set [1] is recorded as “potentiated”. The “Relaxant response elicited by 10 μM nitroprusside” value in data set [5] was 32%. In addition, the “The dead (toxicity by repetitive oral administration)” value in data set [2] is reported as “could not be observed”. In addition, the “mean of prolongation of T75” value in data set [3] is 44 s.
The molecule `O=C(NCc1ccc(F)c(Cl)c1)c1cc([N+](=O)[O-])ccc1NC(CO)CO` [N-(3-Chloro-4-fluorobenzyl)-2-[2-hydroxy-1-(hydroxymethyl)ethylamino]-5-nitrobenzamide] had a melting point of 235 to 238 °C. In addition, in data set [4], the IC50 was < 0.01 µM.
Taken in the same sequence, the figures for `Cc1ccc(CNC(=O)c2cc([N+](=O)[O-])ccc2N[C@H]2CC[C@@H](O)CC2)cc1C` [N-(3,4-Dimethylbenzyl)-2-(cis-4-hydroxycyclohexylamino)-5-nitrobenzamide] were 157 to 158 °C and < 0.01 µM.
Taken in the same sequence, the figures for `C[C@H](CO)Nc1ccc([N+](=O)[O-])cc1C(=O)NCc1ccc(Oc2ccccc2)cc1` [(R)-2-(2-Hydroxy-1-methylethyl)amino-5-nitro-N-(4-phenoxybenzyl)benzamide] were 127 to 129 °C and < 0.01 µM.
